Source: patent US11564912B2, “Methods for treating irritable bowel syndrome (IBS)” (Salix Pharmaceuticals, Inc., priority 2008, dated 2023)

Columns and labels:
subjects with IBS [1] = assay: Combined analysis of the two studies of rifaximin 550 mg TID; format: in vivo, human
Description: A measure of efficacy is based on subjects' answers to the Weekly Subject Global Assessment (SGA) questions over the study duration in relation to their IBS symptoms.

subjects with IBS [2] = assay: as above; format: in vivo, human; remark: listed apart in the source
[3] = oral administration; Descombe et al. 1994; cited from earlier work
[4] = system: patients with diarrhea-predominant IBS (dIBS); assay: 34-item IBS-QOL questionnaire, rifaximin 550 mg BID vs placebo; format: in vivo, human; parameters: key to Mean Change From Baseline in IBS-QOL Scores at Week 4: change in score on 0–100 scale, higher = better QOL; conditions: for Mean Change From Baseline in IBS-QOL Scores at Week 4: Rifaximin 1100 mg/d (n = 191)
Procedure: Both groups received placebo for an additional 14 days after the initial 2-week treatment. Quality of life was assessed with the 34-item IBS-QOL questionnaire at baseline and 4 weeks after initiating treatment. Each item was scored on a 5-point scale (1=not at all; 2=slightly; 3=moderately; 4=quite a bit; and 5=extremely or a great deal). Results for composite and subscale scores were converted to a scale ranging from 0 to 100, with higher scores indicating better QOL.
Following a 2-week initial treatment period, both groups of patients received placebo for an additional 14 days. Quality of life was assessed via the 34-item IBS-QOL questionnaire at baseline and 4 weeks after initiating treatment. Each item was scored on a 5-point scale (1=not at all; 2=slightly; 3=moderately; 4=quite a bit; 5=extremely or a great deal); results for composite and subscale scores were converted to a scale ranging from 0 to 100, with higher scores indicating better QOL.

subjects with dIBS = assay: Study of rifaximin BID in subjects with dIBS: adequate relief of IBS symptoms and bloating; format: in vivo, human; conditions: rifaximin 550 mg BID 14 days, patients with dIBS
[5] = at least 2 out of 4 weeks adequate relief during weeks 3 through 6 (weekly question)

(2S,16Z,18E,20S,21S,22R, 23R,24R,25S,26S,27S,28E)-5,6,21,23,25 Pentahydroxy-27-methoxy -2,4,11,16,20,22,24,26-octamethyl-2,7-(epoxypentadeca-(1,11,13)trienimino)benzofuro (4,5-e) pyrido(1,2,-a) benzimidazole-1,15(2H)-dione,25-acetate [Rifaximin]
Abdominal Pain reduction of 2 point in mean, responders (subjects with IBS [1]; at least 2 weeks during PEP): 25%
Overall reduction of mean weekly abdominal pain by >=25%, responders (subjects with IBS [1]; at least 2 weeks during PEP): 57%
Overall reduction of mean weekly abdominal pain by >=50%, responders (subjects with IBS [1]; at least 2 weeks during PEP): 35%
Overall reduction of mean weekly abdominal pain by >=75%, responders (subjects with IBS [1]; at least 2 weeks during PEP): 14%
Overall reduction of median weekly abdominal pain by >=25%, responders (subjects with IBS [1]; at least 2 weeks during PEP): 62%
Overall reduction of median weekly abdominal pain by >=50%, responders (subjects with IBS [1]; at least 2 weeks during PEP): 44%
Overall reduction of median weekly abdominal pain by >=75%, responders (subjects with IBS [1]; at least 2 weeks during PEP): 21%
Abdominal pain reduction of 1 point in mean, responders (subjects with IBS [1]; weekly mean vs baseline for at least 2 weeks during PEP): 52%
Daily abdominal pain <2, responders (subjects with IBS [2]; <2 for at least 50% of days in a week for at least 2 weeks during PEP): 39%
Global IBS symptoms, responders (subjects with IBS [2]; [5]): 41%
IBS symptom of Bloating, responders (subjects with IBS [2]; [5]): 40%
Abdominal Pain reduction of 2 point in median, responders (subjects with IBS [2]; at least 2 weeks during PEP): 39%
Abdominal Pain reduction of 3 point in mean, responders (subjects with IBS [2]; at least 2 weeks during PEP): 6% vs 7%
Abdominal Pain reduction of 3 point in median, responders (subjects with IBS [2]; at least 2 weeks during PEP): 21%
Abdominal pain reduction of 1 point in median, responders (subjects with IBS [2]; weekly median vs baseline for at least 2 weeks during PEP): 63%
Systemic absorption [3]: negligible
Improvement with rifaximin over placebo, IBS-QOL at Week 4 ([4]; Body image): 37.4%
Mean Change From Baseline in IBS-QOL Scores at Week 4 ([4]; Body image): 20.1
Improvement with rifaximin over placebo, IBS-QOL at Week 4 ([4]; Dysphoria): 25.3%
Mean Change From Baseline in IBS-QOL Scores at Week 4 ([4]; Dysphoria): 24.8
Improvement with rifaximin over placebo, IBS-QOL at Week 4 ([4]; Food avoidance): 22.1%
Mean Change From Baseline in IBS-QOL Scores at Week 4 ([4]; Food avoidance): 25.0
Improvement with rifaximin over placebo, IBS-QOL at Week 4 ([4]; Health worry): 30.6%
Mean Change From Baseline in IBS-QOL Scores at Week 4 ([4]; Health worry): 16.0
Improvement with rifaximin over placebo, IBS-QOL at Week 4 ([4]; Interference with activity): 22.2%
Mean Change From Baseline in IBS-QOL Scores at Week 4 ([4]; Interference with activity): 22.2
Improvement with rifaximin over placebo, IBS-QOL at Week 4 ([4]; Overall score): 28.7%
Mean Change From Baseline in IBS-QOL Scores at Week 4 ([4]; Overall score, 14 days, scale 0 to 100): 20.4
Improvement with rifaximin over placebo, IBS-QOL at Week 4 ([4]; Relationship): 39.5%
Mean Change From Baseline in IBS-QOL Scores at Week 4 ([4]; Relationship): 14.9
Improvement with rifaximin over placebo, IBS-QOL at Week 4 ([4]; Sexual): 24.9%
Mean Change From Baseline in IBS-QOL Scores at Week 4 ([4]; Sexual): 13.6
Improvement with rifaximin over placebo, IBS-QOL at Week 4 ([4]; Social reaction): 31.6%
Mean Change From Baseline in IBS-QOL Scores at Week 4 ([4]; Social reaction): 17.3
Tolerability, incidence of adverse events compared with placebo (subjects with dIBS): well tolerated
